According to patent US6329526A, “Cycloalkyl substituted imidazoles” (SmithKline Beecham Corporation, priority 1998, dated 2001):

Columns and labels:
human PGHS-2 = experiment: PGHS-2 protein expression in LPS stimulated human monocytes; assay type: cell-based
Protocol: The following assay describes a method for determining the inhibitory effects of compounds of Formula (I) on human PGHS-2 protein expression in LPS stimulated human monocytes.
Method: Human peripheral blood monocytes were isolated from buffy coats by centrifugation through Ficoll and Percoll gradients. Cells were seeded at 2×10^6 /well in 24 well plates and allowed to adhere for 1 hour in RPMI supplemented with 1% human AB serum, 20 mM L-glutamine, Penicillin-Streptomycin and 10 mM HEPES. Compounds were added at various concentrations and incubated at 37° C. for 10 minutes. LPS was added at 50 ng/well (to induce enzyme expression) and incubated overnight at 37° C. The supernatant was removed and cells washed once in cold PBS. The cells were lysed in 100 μl of cold lysis buffer(50 mM Tris/HCl pH 7.5, 150 mM NaCl, 1% NP40, 0.5% sodium deoxycholate, 0.1% SDS, 300 ug/ml DNAse, 0.1% TRITON X-100, 1 mM PMSF, 1 mM leupeptin, 1 mM pepstatin). The lysate was centrifuged (10,000× g for 10 min. at 4° C.) to remove debris and the soluble fraction was subjected to SDS PAGE. analysis (12% gel). Protein separated on the gel were transferred onto nitrocellulose membrane by electrophoretic means for 2 hours at 60 volts. The membrane was pretreated for one hour in PBS/0.1% Tween 20 with 5% non-fat dry milk. After washing 3 times in PBS/Tween buffer, the membrane was incubated with a 1:2000 dilution of a monospecific antiserum to PGHS-2 or a 1:1000 dilution of an antiserum to PGHs-1 in PBS/Tween with 1% BSA for one hour with continuous shaking. The membrane was washed 3× in PBS/Tween and then incubated with a 1:3000 dilution of horseradish peroxidase conjugated donkey antiserum to rabbit Ig (Amersham) in PBS/Tween with 1% BSA for one hour with continuous shaking. The membrane was then washed 3× in PBS/Tween and the ECL immunodetection system (Amersham) was used to detect the level of expression of prostaglandin endoperoxide synthases-2.

Interleukin-8 (IL-8) = experiment: IL-8 production by primary human umbilical cord endothelial cells (HUVEC), ELISA; assay type: cell-based; conditions: test compound between 1 and 10 μM
Protocol: Primary human umbilical cord endothelial cells (HUVEC) (Cell Systems, […], Wash.) are maintained in culture medium supplemented with 15% fetal bovine serum and 1% CS-HBGF consisting of aFGF and heparin. The cells are then diluted 20-fold before being plated (250 μl) into gelating coated 96-well plates. Prior to use, culture medium are replaced with fresh medium (200 μl). Buffer or test compound (25 μl, at concentrations between 1 and 10 μM) is then added to each well in quadruplicate wells and the plates incubated for 6h in a humidified incubator at 37° C. in an atmosphere of 5% CO2. At the end of the incubation period, supernatant is removed and assayed for IL-8 concentration using an IL-8 ELISA kit obtained from R&D Systems (Minneapolis, Minn.). All data is presented as mean value (ng/ml) of multiple samples based on the standard curve. IC50's where appropriate are generated by non-linear regression analysis.

[1] = test system: Tumour Necrosis Factor (TNF); experiment: TNF production by LPS-stimulated human peripheral blood monocytes (radioimmunoassay or ELISA); assay type: cell-based; conditions: LPS 100 ng/ml, 16-18 hours
Interleukin-1 (IL-1) = experiment: IL-1 production by LPS-stimulated human peripheral blood monocytes (IL-1 bioassay or ELISA); assay type: cell-based; conditions: LPS 50 ng/ml, 24 hours
Protocol: The cytokine-inhibiting effects of compounds of the present invention were determined by the following in vitro assays: Interleukin -1 (IL-1) Human peripheral blood monocytes are isolated and purified from either fresh blood preparations from volunteer donors, or from blood bank buffy coats, according to the procedure of Colotta et al, J Immunol, 132, 936 (1984). These monocytes (1×10^6) are plated in 24-well plates at a concentration of 1-2 million/ml per well. The cells are allowed to adhere for 2 hours, after which time non-adherent cells are removed by gentle washing. Test compounds are then added to the cells for about 1 hour before the addition of lipopolysaccharide (50 ng/ml), and the cultures are incubated at 37° C. for an additional 24 hours. At the end of this period, culture supernatants are removed and clarified of cells and all debris. Culture supernatants are then immediately assayed for IL-1 biological activity, either by the method of Simon et al., J. Immunol. Methods, 84, 85, (1985) (based on ability of IL-1 to stimulate a Interleukin 2 producing cell line (EL-4) to secrete IL-2, in concert with A23187 ionophore) or the method of Lee et al., J. ImmunoTherapy, 6 (1), 1-12 (1990) (ELISA assay).

CSBP2 = molecular target: T1, CSBP2 (Homo sapiens, UniProt Q16539); experiment: CSBP Kinase Assay (32P transfer to EGFR-derived peptide T669); assay type: biochemical
T1 construct: made in house; host or cells: yeast
T1 sequence (Q16539 whole entry): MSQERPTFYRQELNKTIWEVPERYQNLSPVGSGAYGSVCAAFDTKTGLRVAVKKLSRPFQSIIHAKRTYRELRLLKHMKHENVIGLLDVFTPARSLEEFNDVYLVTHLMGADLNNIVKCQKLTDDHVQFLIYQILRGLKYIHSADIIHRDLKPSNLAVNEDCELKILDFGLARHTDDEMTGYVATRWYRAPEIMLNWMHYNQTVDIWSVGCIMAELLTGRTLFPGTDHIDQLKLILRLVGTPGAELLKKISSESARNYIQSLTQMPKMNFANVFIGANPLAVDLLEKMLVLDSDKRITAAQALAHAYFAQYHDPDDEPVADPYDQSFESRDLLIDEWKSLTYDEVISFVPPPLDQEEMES
Protocol: Compounds (5 ul from [6X] stock^(2)) are pre-incubated with the enzyme and peptide for 20 min on ice prior to starting the reactions with 32P/MgATP. Reactions are incubated at 30° C. for 10 min and stopped by adding 10 ul of 0.3 M phosphoric acid. 32P-labeled peptide is separated on phosphocellulose (Wattman, p81) filters by spotting 30 ul reaction mixture. Filters are washed 3 times with 75 mM phosphoric acid followed by 2 washes with H2 O, and counted for 32P.

C[S+]([O-])c1ccc(-c2nc(-c3ccc(F)cc3)c(-c3ccncc3)[nH]2)cc1 (stereo not drawn) [4-(4-Fluorophenyl)-2-(4-methylsulfinylphenyl)-5-(4-pyridyl)imidazole]
inhibition of LPS induced PGHS-2 protein expression (human PGHS-2; LPS stimulated human monocytes, rank order potency similar to that for inhibiting cytokine production): active

CC(Cc1ccc(O)c(O)c1)C(C)Cc1ccc(O)c(O)c1 (stereo not drawn) [NDGA]
inhibition of LPS induced PGHS-2 protein expression (human PGHS-2; up to 10 uM): inactive

O=C1CCN(c2ccccc2)N1 [phenidone]
inhibition of LPS induced PGHS-2 protein expression (human PGHS-2; up to 10 uM): inactive

COc1ccc(C2CNC(=O)C2)cc1OC1CCCC1 (stereo not drawn) [rolipram]
inhibition of LPS induced PGHS-2 protein expression (human PGHS-2; up to 10 uM): inactive

COc1nccc(-c2c(-c3ccc(F)cc3)ncn2[C@H]2CC[C@H](O)CC2)n1 [Example 2, trans-1-(4-Hydroxycyclohexyl)-4-(4-fluorophenyl)-5-[(2-methoxy)pyrimidin-4-yl]imidazole]
inhibitory activity against IL-8 (Interleukin-8 (IL-8)): positive inhibitory activity | inhibitory activity against TNF [1]: positive inhibitory activity | inhibitory activity against IL-1 (Interleukin-1 (IL-1)): positive inhibitory activity

C[S+]([O-])c1ccc(-c2nc3n(c2-c2ccncc2)CCC3)cc1 (stereo not drawn) [2-(4-Methylsulfinylphenyl)-3-(4-pyridyl)-6,7-dihydro-(5H)-pyrrolo[1,2-a]imidazole]
inhibition of LPS induced PGHS-2 protein expression (human PGHS-2; up to 10 uM): inactive

CCOc1nccc(-c2c(-c3ccc(F)cc3)ncn2[C@H]2CC[C@H](O)CC2)n1 [Example 9, trans-1-(4-Hydroxycyclohexyl)-4-(4-fluorophenyl)-5-[(2-ethoxy)pyrimidine-4-yl]imidazole]
IC50 (CSBP2): < 50 µM
